From ChEMBL document CHEMBL1938350, “Recent progress in biological activities of synthesized phenothiazines” (Eur J Med Chem, 2011)
Converted amounts (≈) assume the structure as drawn.

How the values were obtained:
Saccharomyces cerevisiae = test: Antifungal activity against Saccharomyces cerevisiae; format: functional
[1] = tested on: Trichophyton mentagrophytes; test: Antifungal activity against Trichophyton mentagrophytes; format: functional
[2] = Cytotoxicity against human leukemia cells; format: functional; conditions: Leukemia cell
[3] = Cytotoxicity against human colon cancer cells; format: functional; conditions: Cancer cell lines, read-out: LC50 (the source's name)
WI-38 [4] = test: Antimitotic activity against human non-transformed WI38 cells assessed as cell viability at 5 uM after 1 day; format: functional; conditions: WI-38, 24 h, read-out: Activity
WI-38 [5] = test: Antimitotic activity against human non-transformed WI38 cells assessed as monoastral spindle formation at 5 uM after 1 day; format: functional
[6] = target: T1, Kinesin-like protein KIF11 (Homo sapiens, UniProt P52732); test: Inhibition of mitotic kinesin Eg5 in human transformed WI38VA13 cells assessed as inhibition of microtubule-activated ATPase activity; format: cell-based
T1 sequence (P52732 whole entry): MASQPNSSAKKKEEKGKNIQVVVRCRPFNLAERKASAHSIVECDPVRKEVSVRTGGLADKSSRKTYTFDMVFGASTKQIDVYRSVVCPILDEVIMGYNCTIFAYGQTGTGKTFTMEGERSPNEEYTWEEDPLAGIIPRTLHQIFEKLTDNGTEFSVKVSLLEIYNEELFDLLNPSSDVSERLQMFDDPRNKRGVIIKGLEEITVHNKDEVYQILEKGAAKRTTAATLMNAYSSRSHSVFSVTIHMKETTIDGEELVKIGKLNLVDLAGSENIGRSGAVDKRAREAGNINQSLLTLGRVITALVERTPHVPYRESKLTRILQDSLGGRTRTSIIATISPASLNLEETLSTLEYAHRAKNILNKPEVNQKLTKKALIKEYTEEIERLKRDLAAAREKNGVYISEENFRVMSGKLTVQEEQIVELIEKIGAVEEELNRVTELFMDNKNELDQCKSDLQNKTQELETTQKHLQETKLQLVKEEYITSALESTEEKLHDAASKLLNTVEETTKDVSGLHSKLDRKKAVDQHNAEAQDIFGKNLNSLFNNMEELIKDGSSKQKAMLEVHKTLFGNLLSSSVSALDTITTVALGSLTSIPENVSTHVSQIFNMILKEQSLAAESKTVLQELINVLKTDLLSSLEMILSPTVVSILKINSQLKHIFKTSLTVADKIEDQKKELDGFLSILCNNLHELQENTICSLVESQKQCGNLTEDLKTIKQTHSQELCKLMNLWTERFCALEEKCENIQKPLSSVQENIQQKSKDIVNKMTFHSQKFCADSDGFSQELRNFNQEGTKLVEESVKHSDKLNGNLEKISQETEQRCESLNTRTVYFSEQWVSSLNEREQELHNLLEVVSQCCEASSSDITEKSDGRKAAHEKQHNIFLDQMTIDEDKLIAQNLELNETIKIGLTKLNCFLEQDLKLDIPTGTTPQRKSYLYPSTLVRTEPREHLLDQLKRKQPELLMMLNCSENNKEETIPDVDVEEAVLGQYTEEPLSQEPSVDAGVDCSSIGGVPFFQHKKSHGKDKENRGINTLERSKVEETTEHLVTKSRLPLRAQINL

SK-MEL-5 = test: Cytotoxicity against human SK-MEL-5 cells; format: functional
IGROV-1 = test: Cytotoxicity against human IGROV1 cells; format: functional
[7] = Potentiation of doxorubicin-induced cytotoxicity against human A2780/DX3 cells after 16 hrs; format: functional
[8] = Antiplatelet activity in rabbit platelets assessed as inhibition of collagen-induced platelet aggregation; format: functional, cell-based, Oryctolagus cuniculus
Mus musculus = test: Antiinflammatory activity in mouse assessed as inhibition of edema formation; format: functional
[9] = Antiplatelet activity in rabbit platelets assessed as inhibition of arachidonic acid-induced platelet aggregation; format: functional, cell-based, Oryctolagus cuniculus
[10] = Toxicity in rat; format: organism-based; conditions: in vivo, read-out: ALD50
Rattus norvegicus = species: Rattus norvegicus; test: Anticonvulsant activity in rat assessed as inhibition of seizures; format: functional
[11] = Oryctolagus cuniculus, Platelet

## NCCCCN1c2ccccc2Sc2ccc(C(F)(F)F)cc21
Saccharomyces cerevisiae
  MIC: 0.4 µg/mL (≈ 1.18 µM)
[1]
  MIC: 1.5 µg/mL (≈ 4.43 µM)

## O=C(NCCCl)NCCCCN1c2ccccc2Sc2ccc(Cl)cc21
[2]
  GI50: 1400 nM
[3]
  CC50: 5700 nM

## OC(CNCCc1ccccc1)CN1c2ccccc2Sc2ccc(Cl)cc21 (stereo unspecified)
WI-38 [4]
  viability at 5 µM: 90%
WI-38 [5]
  Activity: 90%
[6]
  IC50: 1520 nM

## O=C(NCCCl)NCCN1c2nc3ccccc3cc2Sc2cc3ccccc3nc21
SK-MEL-5
  GI50: 88 nM

## CCN(CC)CCN1c2nc3ccccc3cc2Sc2cc3ccccc3nc21
IGROV-1
  GI50: 190 nM

## O=C(CSCC1CCCN2CCCCC12)N1c2ccccc2Sc2ccc(Cl)cc21 (stereo unspecified)
[7]
  fold change (FC): 3.96

## O=C(CSCC1CCCN2CCCCC12)N1c2ccccc2Sc2ccc(C(F)(F)F)cc21 (stereo unspecified)
[7]
  fold change (FC): 3.96

## COc1ccc2c(c1)N(C(=O)CCSCC1CCCN3CCCCC13)c1ccccc1S2 (stereo unspecified)
[7]
  fold change (FC): 3.96

## CN(C)c1ccc(/C=N/NC(=O)N2c3ccccc3Sc3ccccc32)cc1
[8]
  inhibition (INH): 100%
Mus musculus
  inhibition (INH): 20.5%
[9]
  inhibition (INH): 100%

## O=C(O)c1ccc(/C=N/NC(=O)N2c3ccccc3Sc3ccccc32)cc1
[8]
  inhibition (INH): 100%
Mus musculus
  inhibition (INH): 51%
[9]
  inhibition (INH): 100%

## O=C(N/N=C/c1ccccc1)N1c2ccccc2Sc2ccccc21
[8]; [11]
  IC50: 2300 nM
[9]; [11]
  IC50: 2300 nM

## NNC(=O)N1c2ccccc2Sc2ccccc21
[8]
  inhibition (INH): 100%
[9]
  inhibition (INH): 100%

## O=C(N/N=C/C1CCCO1)N1c2ccccc2Sc2ccccc21 (stereo unspecified)
[8]
  inhibition (INH): 100%
[9]
  inhibition (INH): 100%

## O=C(N/N=C/C1CCCS1)N1c2ccccc2Sc2ccccc21 (stereo unspecified)
[8]
  inhibition (INH): 100%
[9]
  inhibition (INH): 100%

## O=C1NC(=O)C(CNc2nnc(CN3c4ccccc4Sc4ccccc43)o2)C(=O)N1
[10]
  LD50: 1000 mg/kg
Rattus norvegicus
  inhibition (INH): 80%

## O=C1NC(=S)NC(=O)C1CNc1nnc(CN2c3ccccc3Sc3ccccc32)s1
[10]
  LD50: 1000 mg/kg
Rattus norvegicus
  inhibition (INH): 80%

## O=C1N=C([O-])NC1(c1ccccc1)c1ccccc1.[Na+] [PHENYTOIN SODIUM]
[10]
  LD50: 1000 mg/kg
